The source of these data is patent US20040143865A1, “Transgenic zebrafish models for angiogenesis” (priority 2002, published 2004).

Entries after “also recorded” stand apart in the source; their conditions may differ.

The conditions of data set [1]: patients treated in clinical trials; cited from earlier work.
Data set [2] relates to vascular endothelial cell. The note with it: in vitro; cited from earlier work.
For data set [3], the system named is mouse xenograft models. The note with it: mouse xenograft models (Shaheen et al., 1999); cited from earlier work.
For data set [4], the system named is TG(VEGFR2:G-RCFP) transgenic zebrafish embryos. Kind of data set: Angiogenesis inhibitor assay in TG(VEGFR2:G-RCFP) transgenic zebrafish embryos with fluorescent blood vessels. The following applies: for Intersegmental vessel formation: treated overnight from 13-somite stage (approximately 15 hpf); for Phenotypic response: cell wrapped over the compound's rows, in full: Dorsal aorta, caudal veins, present. Intersegmental vessels absent. Cranial vessels reduced in number.; for Concentrations of the compounds required to see these effects (complete block of intersegmental vessel formation) / Blood vessels in the head that form by angiogenesis: overnight application; for Blood vessels in the head that form by angiogenesis: 10 μM for SU5416 and 15 μM for SU6668; for Effect on pre-existing blood vessels: six-hour treatment at 24 hpf, well-established primary vasculature not affected; for Migration pattern of VEGFR2 expressing cells toward the midline: treated embryos at the 18 somite stage, versus control.

Data set [5] relates to zebrafish blood vessels. The note with it: Chan et al., 2002; cited from earlier work.
Where [6] appears, read: 10 μM, stage at treatment 6 hpf, time treated 24 h.
The mark [7] stands for this setting: 10 μM, stage at treatment 15 hpf, time treated 24 h.
The mark [8] stands for this setting: 10 μM, stage at treatment 24 hpf, time treated 6 h.

For the compound `Cc1cc(C)c(/C=C2\C(=O)Nc3ccccc32)[nH]1` [SU5416], in data set [1], the Plasma level was 5 µM. Besides, the “VEGF-induced vascular endothelial cell proliferation” value in data set [2] is reported as “inhibit VEGF-induced vascular endothelial cell proliferation in vitro”. For the same compound, the “Metastases, microvessel formation and apoptosis” value in data set [3] is “inhibit the formation of metastases and microvessel formation and increase apoptosis of both tumor cells and tumor endothelial cells”. Also, the Percent full effect in data set [4] (5 μM, stage at treatment 6 hpf, time treated 24 h) stood at 100%; in data set [4] (5 μM, stage at treatment 15 hpf, time treated 24 h), 77%; in data set [4] (5 μM, stage at treatment 24 hpf, time treated 6 h), 60%; in data set [4] (setting [6]), 100%; in data set [4] (10 μM, stage at treatment 15 hpf, time treated 6 h), 100%; in data set [4] (setting [7]), 100%. The same compound came in with a Percent full effect in data set [4] (setting [8]) of 100%. Further, the “Disruption of pre-existing intersegmental vessels” value in data set [4] (10 μM for six hours beginning at 24 hpf, embryo at 30 hpf) was “A single intersegmental vessel (indicated by arrow) remains”. Further, the Intersegmental vessel formation result in data set [4] (10 μM, embryo at 30 hpf) is “No intersegmental vessels are observed; also recorded: completely blocked intersegmental vessel formation”. Besides, the Phenotypic response result in data set [4] is “Dorsal aorta, caudal”. Moreover, the “Recovery time of treated embryos” value in data set [4] (comparison SU5416 versus SU6668) is “required a longer recovery time than those treated with SU6668”. The “Distribution in treated embryos” value in data set [4] (difficult to remove even after many hours of soaking in fresh water) is recorded as “highly concentrated in the yolk of treated embryos”. The “Concentrations of the compounds required to see these effects (complete block of intersegmental vessel formation)” value in data set [4] was 10 µM. In addition, the “Blood vessels in the head that form by angiogenesis” value in data set [4] is “blood vessels in the head that form by angiogenesis were not observed”. The “Effect on pre-existing blood vessels” value in data set [4] is “disrupted pre- existing blood vessels”. Also, in data set [4], the “Migration pattern of VEGFR2 expressing cells toward the midline” value was “No difference was observed in the migration pattern of VEGFR2 expressing cells”.
In the case of `Cc1[nH]c(/C=C2\C(=O)Nc3ccccc32)c(C)c1CCC(=O)O` [SU6668], in data set [2], the “VEGF-induced vascular endothelial cell proliferation” value is on record as “inhibit VEGF-induced vascular endothelial cell proliferation in vitro”. Moreover, the “Metastases, microvessel formation and apoptosis” value in data set [3] was “inhibit the formation of metastases and microvessel formation and increase apoptosis of both tumor cells and tumor endothelial cells”. In addition, the Percent full effect is on record as 100% in data set [4] (setting [6]); 100% in data set [4] (setting [7]); 87% in data set [4] (setting [8]); 100% in data set [4] (15 μM, stage at treatment 6 hpf, time treated 24 h); 100% in data set [4] (15 μM, stage at treatment 15 hpf, time treated 6 h); 100% in data set [4] (15 μM, stage at treatment 15 hpf, time treated 24 h). In addition, the Percent full effect in data set [4] (15 μM, stage at treatment 24 hpf, time treated 6 h) turned out to be 100%. Also, the Intersegmental vessel formation entry in data set [4] (15 μM, embryo at 30 hpf) was “No intersegmental vessels are observed; also recorded: completely blocked intersegmental vessel formation”. Besides, the Phenotypic response result in data set [4] is listed as “Dorsal aorta, caudal”. In addition, in data set [4] (larva at 5 dpf, treated overnight with 15 μM at 2 dpf, recovered 3 days in fresh water, some vessels migrating abnormally), the “Intersegmental vessels after recovery” value is reported as “Intersegmental vessels are reforming”. In data set [4], the “Concentrations of the compounds required to see these effects (complete block of intersegmental vessel formation)” value was found to be 15 µM. Further, the “Blood vessels in the head that form by angiogenesis” value in data set [4] is “blood vessels in the head that form by angiogenesis were not observed”. The “Effect on pre-existing blood vessels” value in data set [4] is “disrupted pre- existing blood vessels”. Also, in data set [4], the “Migration pattern of VEGFR2 expressing cells toward the midline” value is recorded as “No difference was observed in the migration pattern of VEGFR2 expressing cells”.
On to `Clc1ccc(Nc2nnc(Cc3ccncc3)c3ccccc23)cc1` [PTK787/ZK222584], for which the “Formation of zebrafish blood vessels” value in data set [5] is reported as “affect the formation of zebrafish blood vessels”.
